Patent US20260042764A1, “COMPOSITIONS AND METHODS FOR INHIBITION OF KRAS” (TheRas, Inc., priority 2022, published 2026)

Legend:
[1] = target: T1, Avi-KRAS WT (1-169) GppNHp/RAF1 RBD-3xFLAG (52-151) (Homo sapiens, UniProt P01116); test: Raf1-KRAS WT-GppNHP disruption HTRF assay (Biological Example 1); format: binding
T1 construct: Avi-KRAS WT (1-169)
How it was run: (§1)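 Measured with a KRAS/RAF1 HTRF assay at pH 7.5 in 10% DMSO, with two 1 h room-temperature incubations with shaking.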

[2] = target: T2, Avi-KRAS G12D (1-169) GppNHp/RAF1 RBD-3xFLAG (52-151) (Homo sapiens, UniProt P01116, G12D); test: Raf1-KRAS G12D-GppNHP disruption HTRF assay (Biological Example 1); format: binding
T2 construct: Avi-KRAS G12D (1-169)
How it was run: as §1

SW620 cells (KRAS G12V) = test: Cell-based pERK HTRF assay in SW620 cell (Biological Example 4)
How it was run: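 This assay measures inhibition of ERK phosphorylation downstream of KRAS G12V in intact SW620 cells. Compounds are applied for 4 h over nine half-log concentrations starting at 1 μM, and pERK is quantified by HTRF.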

[3] = target: T3, Avi-KRAS G12R (1-169) GppNHp/RAF1 RBD-3xFLAG (52-151) (Homo sapiens, UniProt P01116, G12R); test: Raf1-KRAS G12R-GppNHP disruption HTRF assay (Biological Example 1); format: binding
T3 construct: Avi-KRAS G12R (1-169)
How it was run: as §1

[4] = target: T4, Avi-KRAS G12V (1-169) GppNHp/RAF1 RBD-3xFLAG (52-151) (Homo sapiens, UniProt P01116, G12V); test: Raf1-KRAS G12V-GppNHP disruption HTRF assay (Biological Example 1); format: binding
T4 construct: Avi-KRAS G12V (1-169)
How it was run: as §1

[5] = target: T5, Avi-KRAS G12V (2-169) GTP/RAF1 RBD-3xFLAG (51-131) (Homo sapiens, UniProt P01116, G12V); test: Raf1-KRAS G12V-GTP disruption HTRF assay (Biological Example 3); format: binding; conditions: KRAS G12V, GTP-loaded
T5 construct: Avi-KRAS G12V (2-169)
How it was run: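 Each KRAS-GTP/RAF1 RBD complex at 50 nM, with 75 nM 3xFLAG-RAF1 RBD (51-131)-Avi, in 50 mM Tris pH 7.5, 100 mM NaCl, 5 mM MgCl2, 0.1% BSA, 0.01% Tween 20, 10% DMSO. Compounds titrated from 30 μM, 10-point 3x series; 1 h at room temperature with shaking. HTRF read, activity as percent of DMSO.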

[6] = KRAS WT, GppNHp-loaded, Table 11
[7] = KRAS G12D, GppNHp-loaded, Table 11
[8] = Homo sapiens, SW-620, SW620 (KRAS G12V) cells
[9] = Homo sapiens, SW-620, SW620 (KRAS G12V) cells, pERK HTRF
[10] = KRAS G12R, GppNHp-loaded, Table 11
[11] = KRAS G12V, GppNHp-loaded, Table 11
[12] = SW620 (KRAS G12V) cells, pERK HTRF
[13] = KRAS WT, GppNHp-loaded, class symbols
[14] = KRAS G12D, GppNHp-loaded, class symbols
[15] = Homo sapiens, SW-620, SW620 (KRAS G12V) cells, pERK HTRF, class symbols
[16] = KRAS G12R, GppNHp-loaded, class symbols
[17] = KRAS G12V, GppNHp-loaded, class symbols

T1 sequence (P01116 1-169 isoform P01116-2): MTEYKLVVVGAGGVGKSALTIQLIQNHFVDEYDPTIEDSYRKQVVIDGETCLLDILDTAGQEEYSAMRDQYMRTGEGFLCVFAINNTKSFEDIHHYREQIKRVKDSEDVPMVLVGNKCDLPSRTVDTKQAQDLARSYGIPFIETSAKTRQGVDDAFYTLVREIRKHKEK
T2 sequence (P01116 1-169 isoform P01116-2 G12D): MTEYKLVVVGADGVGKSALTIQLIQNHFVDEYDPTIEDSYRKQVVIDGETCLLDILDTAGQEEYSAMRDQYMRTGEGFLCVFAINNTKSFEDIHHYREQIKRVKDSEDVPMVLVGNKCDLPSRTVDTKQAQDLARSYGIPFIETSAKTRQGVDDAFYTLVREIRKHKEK
T3 sequence (P01116 1-169 isoform P01116-2 G12R): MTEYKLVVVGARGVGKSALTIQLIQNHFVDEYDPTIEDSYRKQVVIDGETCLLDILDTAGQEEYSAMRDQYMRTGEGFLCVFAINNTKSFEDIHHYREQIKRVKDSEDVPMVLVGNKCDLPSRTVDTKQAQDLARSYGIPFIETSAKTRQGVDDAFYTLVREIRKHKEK
T4 sequence (P01116 1-169 isoform P01116-2 G12V): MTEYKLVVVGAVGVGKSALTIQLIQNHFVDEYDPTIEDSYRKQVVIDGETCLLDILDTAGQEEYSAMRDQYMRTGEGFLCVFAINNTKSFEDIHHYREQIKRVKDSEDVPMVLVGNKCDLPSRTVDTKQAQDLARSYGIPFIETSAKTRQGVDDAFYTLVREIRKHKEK
T5 sequence (P01116 2-169 isoform P01116-2 G12V): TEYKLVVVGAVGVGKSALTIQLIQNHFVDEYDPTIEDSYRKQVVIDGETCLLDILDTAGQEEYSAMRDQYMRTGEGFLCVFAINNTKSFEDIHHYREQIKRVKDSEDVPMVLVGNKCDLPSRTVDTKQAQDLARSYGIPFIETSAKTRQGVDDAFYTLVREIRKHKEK

Structure (SMILES) | IC50 [1, 6] | IC50 [2, 7] | IC50 (SW620 cells (KRAS G12V); [8]) | IC50 (SW620 cells (KRAS G12V); [9]) | IC50 [3, 10] | IC50 [4, 11] | IC50 [5] | IC50 (SW620 cells (KRAS G12V); SW620 (KRAS G12V) cells) | IC50 (SW620 cells (KRAS G12V); [12]) | IC50 [1, 13] | IC50 [2, 14] | IC50 (SW620 cells (KRAS G12V); [15]) | IC50 [3, 16] | IC50 [4, 17] | IC50 ([1]; KRAS WT-GppNHp/RAF1 RBD HTRF) | IC50 ([2]; KRAS G12D-GppNHp/RAF1 RBD HTRF) | IC50 ([3]; KRAS G12R-GppNHp/RAF1 RBD HTRF) | IC50 ([4]; KRAS G12V-GppNHp/RAF1 RBD HTRF)
N#Cc1c(N)sc2c(F)ccc(-c3c(C(F)(F)F)cc4c(N5CCNS(=O)(=O)CC5)nc(OC[C@@]56CCCN5C[C@H](F)C6)nc4c3F)c12 [Compound 245] | < 100 nM | < 100 nM | < 100 nM | < 100 nM | < 100 nM | 100 to 1000 nM | 100 to 1000 nM |  |  |  |  |  |  |  |  |  |  | 
CN(c1nc(OC[C@@]23CCCN2C[C@H](F)C3)nc2c(F)c(-c3ccc(F)c4sc(N)c(C#N)c34)c(C(F)(F)F)cc12)[C@H]1C[C@@H](O)C1 [Compound 19, 2-amino-7-fluoro-4-((S)-8-fluoro-2-(((2R,7aS)-2-fluorotetrahydro-1H-pyrrolizin-7a(5H)-yl)methoxy)-4-(((1s,3R)-3-hydroxycyclobutyl)(methyl)amino)-6-(trifluoromethyl)quinazolin-7-yl)benzo[b]thiophene-3-carbonitrile] | < 100 nM | < 100 nM |  |  | < 100 nM | < 100 nM | 100 to 1000 nM | < 100 nM | < 100 nM |  |  |  |  |  |  |  |  | 
CCN(c1nc(OC[C@@]23CCCN2C[C@H](F)C3)nc2c(F)c(-c3ccc(F)c4sc(N)c(C#N)c34)c(C(F)(F)F)cc12)[C@H]1CC(=O)N(C)C1 (atropisomer, axis not shown) [Compound 614] |  |  | < 100 nM |  |  |  | 100 to 1000 nM |  |  | < 100 nM | < 100 nM | < 100 nM | < 100 nM | < 100 nM |  |  |  | 
N#Cc1c(N)sc2c(F)ccc(-c3c(C(F)(F)F)cc4c(N5CC6CC(C5)O6)nc(OC[C@@]56CCCN5C[C@H](F)C6)nc4c3F)c12 [Compound 145] | 100 to 1000 nM | 100 to 1000 nM | < 100 nM | < 100 nM | 100 to 1000 nM | 100 to 1000 nM | 1000 to 10000 nM |  |  |  |  |  |  |  |  |  |  | 
CC(=O)N1CC(N(C)c2nc(OCC34CCCN3CC(F)C4)nc3c(F)c(-c4ccc(F)c5sc(N)c(C#N)c45)c(C(F)(F)F)cc23)CC1C (stereo not drawn) [Compound 291] |  |  |  |  |  |  | 100 to 1000 nM | < 100 nM | < 100 nM |  |  |  |  |  | 100 to 1000 nM | 100 to 1000 nM | 100 to 1000 nM | 100 to 1000 nM
Cc1c(C(=O)N(C)C)nn2c1CN(c1nc(OC[C@@]34CCCN3C[C@H](F)C4)nc3c(F)c(-c4ccc(F)c5sc(N)c(C#N)c45)c(C(F)(F)F)cc13)CC2 (atropisomer, axis not shown; (aS)) [Compound 590, 5-((S)-7-(2-amino-3-cyano-7-fluorobenzo[b]thiophen-4-yl)-8-fluoro-2-(((2R,7aS)-2-fluorotetrahydro-1H-pyrrolizin-7a(5H)-yl)methoxy)-6-(trifluoromethyl)quinazolin-4-yl)-N,N,3-trimethyl-4,5,6,7-tetrahydropyrazolo[1,5-a]pyrazine-2-carboxamide] |  |  |  |  |  |  | 100 to 1000 nM | < 100 nM |  | < 100 nM | < 100 nM | < 100 nM | < 100 nM | < 100 nM |  |  |  | 
CCN(c1nc(OC[C@@]23CCCN2C[C@H](F)C3)nc2c(F)c(-c3ccc(F)c4sc(N)c(C#N)c34)c(C(F)(F)F)cc12)[C@H]1C[C@@H](C)N(C(=O)[C@H]2CCO2)C1 (atropisomer, axis not shown) [Compound 752] |  |  | < 100 nM |  |  |  | 100 to 1000 nM |  |  | 100 to 1000 nM | < 100 nM | < 100 nM | < 100 nM | 100 to 1000 nM |  |  |  | 
CCN(c1nc(OC[C@@]23CCCN2C[C@H](F)C3)nc2c(F)c(-c3ccc(F)c4sc(N)c(C#N)c34)c(C(F)(F)F)cc12)[C@H]1CCN(C(=O)CC(F)F)C1 (atropisomer, axis not shown) [Compound 611] |  |  | < 100 nM |  |  |  | ≤ 100 nM |  |  | < 100 nM | < 100 nM | < 100 nM | < 100 nM | < 100 nM |  |  |  | 
CN(C)C(=O)c1cc2n(n1)CCN(c1nc(OC[C@@]34CCCN3C[C@H](F)C4)nc3c(F)c(-c4ccc(F)c5sc(N)c(C#N)c45)c(C(F)(F)F)cc13)C2 [Compound 355] |  |  | < 100 nM | < 100 nM |  |  | 100 to 1000 nM |  |  |  |  |  |  |  | 100 to 1000 nM | 100 to 1000 nM | 100 to 1000 nM | 100 to 1000 nM
CCN(c1nc(OC[C@@]23CCCN2C[C@H](F)C3)nc2c(F)c(-c3ccc(F)c4sc(N)c(C#N)c34)c(C(F)(F)F)cc12)[C@H]1CCN(C(=O)C2CC2)[C@@H]1C (atropisomer, axis not shown) [Compound 579] |  |  | < 100 nM |  |  |  | 100 to 1000 nM |  |  | < 100 nM | < 100 nM | < 100 nM | < 100 nM | < 100 nM |  |  |  | 
CCN1C[C@@H](N(C)c2nc(OC[C@@]34CCCN3C[C@H](F)C4)nc3c(F)c(-c4ccc(F)c5sc(N)c(C#N)c45)c(C(F)(F)F)cc23)CC1=O (atropisomer, axis not shown) [Compound 636] |  |  | < 100 nM |  |  |  | 100 to 1000 nM |  |  | < 100 nM | < 100 nM | < 100 nM | < 100 nM | < 100 nM |  |  |  | 
N#Cc1c(N)sc2c(F)ccc(-c3c(C(F)(F)F)cc4c(N5CCn6nc(C(=O)N7CCOCC7)cc6C5)nc(OCC56CCCN5CC(F)C6)nc4c3F)c12 (stereo not drawn) [Compound 646] |  |  | < 100 nM |  |  |  | 100 to 1000 nM |  |  | 100 to 1000 nM | < 100 nM | < 100 nM | < 100 nM | < 100 nM |  |  |  | 
CCN(c1nc(OC[C@@]23CCCN2C[C@H](F)C3)nc2c(F)c(-c3ccc(F)c4sc(N)c(C#N)c34)c(C(F)(F)F)cc12)[C@H]1C[C@@H](C)N(C(=O)C2COC2)C1 (atropisomer, axis not shown) [Compound 586] |  |  | < 100 nM |  |  |  | 100 to 1000 nM |  |  | < 100 nM | < 100 nM | < 100 nM | < 100 nM | 100 to 1000 nM |  |  |  | 
CCN(c1nc(OC[C@@]23CCCN2C[C@H](F)C3)nc2c(F)c(-c3ccc(F)c4sc(N)c(C#N)c34)c(C(F)(F)F)cc12)[C@H]1C[C@H](C)N(C(=O)OC)C1 (atropisomer, axis not shown) [Compound 704] |  |  | < 100 nM |  |  |  | 100 to 1000 nM |  |  | < 100 nM | < 100 nM | < 100 nM | < 100 nM | < 100 nM |  |  |  | 
CCN(c1nc(OC[C@@]23CCCN2C[C@H](F)C3)nc2c(F)c(-c3ccc(F)c4sc(N)c(C#N)c34)c(C(F)(F)F)cc12)[C@H]1CCN(C(=O)c2ccns2)C1 (atropisomer, axis not shown) [Compound 726] |  |  | < 100 nM |  |  |  | 100 to 1000 nM |  |  | < 100 nM | < 100 nM | < 100 nM | < 100 nM | < 100 nM |  |  |  | 
CCN(c1nc(OC[C@@]23CCCN2C[C@H](F)C3)nc2c(F)c(-c3ccc(F)c4sc(N)c(C#N)c34)c(C(F)(F)F)cc12)[C@H]1CCN(C(=O)[C@@H]2CCO2)C1 (atropisomer, axis not shown) [Compound 603] |  |  | < 100 nM |  |  |  | ≤ 100 nM |  |  | < 100 nM | < 100 nM | < 100 nM | < 100 nM | < 100 nM |  |  |  | 
CC(=O)N1CC[C@H](N(c2nc(OC[C@@]34CCCN3C[C@H](F)C4)nc3c(F)c(-c4ccc(F)c5sc(N)c(C#N)c45)c(C(F)(F)F)cc23)C2CC2)C1 (atropisomer, axis not shown) [Compound 608] |  |  | < 100 nM |  |  |  | 100 to 1000 nM |  |  | 100 to 1000 nM | < 100 nM | < 100 nM | 100 to 1000 nM | 100 to 1000 nM |  |  |  | 
N#Cc1c(N)sc2c(F)ccc(-c3c(C(F)(F)F)cc4c(N5CCCC[C@@H](O)C5)nc(OC[C@@]56CCCN5C[C@H](F)C6)nc4c3F)c12 [Compound 286] |  |  | < 100 nM | < 100 nM |  |  | 100 to 1000 nM |  |  |  |  |  |  |  | < 100 nM | < 100 nM | < 100 nM | 100 to 1000 nM
